Assay results taken from US4220795A, “Cyclobutyl substituted derivatives of prostaglandin analogs” (Miles Laboratories, Inc., priority 1978, dated 1980).
Values after ≈ are worked out from the molar mass of the structure shown.

Key:
femoral blood flow = test: Effects on Femoral Blood Flow in the Dog (Test C); assay type: in vivo, dog (mongrel); settings: anesthetized dog, intraarterial 0.001 to 10 mcg
Protocol: C. Evaluation of the Effects of Prostaglandin Analogs III on the Femoral Blood Flow in the Dog
The peripheral vasodilator or constrictor effects of test compounds were determined in mongrel dogs of either sex, weighing between 10 and 20 kg anesthestized intravenously with 35 mg/kg of sodium pentobarbital. An external iliac artery was dissected immediately above the femoral arch for a length of approximately 5 cm and a previously calibrated, non-connulating electromagnetic flowmeter sensor with a lumen between 2.5 and 3.5 mm was placed snugly around the vessel. Cannulas were placed in a branch of the artery arising distally to the location of the flowmeter sensor for intraarterial drug administrations, in the contralateral femoral artery for systemic blood pressure recordings and in the trachea for artificial respiration with room air. Femoral blood flow and systemic blood pressure were continuously recorded with an electromagnetic flowmeter and pressure transducer, respectively.
After an adequate control period, test compounds were injected intraarterially at one log-spaced doses ranging from 0.001 to 10 mcg., in a volume of 0.5 ml and at 5 to 10 min intervals. Maximum changes in bloodflow, as well as any variations in blood pressure, were tabulated for each dose in absolute values (ml/min and mmHg). The calculations were made taking as control values those existing immediately before administration of each dose. The direction of the observed change (+ for increase and - for decrease) was also noted. The dose changing bloodflow by 100 ml/min (ED100 ml/min) was calculated graphically and was used for scoring activity as follows: […]

[1] = test system: blood pressure (hypertensive rat); test: Effects on Blood Pressure in the Hypertensive Rat (Test E); assay type: in vivo; parameters: key: 0: Not significant at any time interval; 1: Significant at one time interval; 2: Significant at two time intervals; 3: Significant at three time intervals; 4: Significant at all four intervals; settings: 1 mg/kg intraperitoneal, 2, 4, 6 and 8 hr
Protocol: E. Evaluation of the Effects of Prostaglandin Analogs III on Blood Pressure in the Hypertensive Rat
The acute antihypertensive activity of test compounds is determined in rats made hypertensive by the procedure of Grollman (A. Proc. Soc. Exper. Biol. Med., 57:102, [1944]). Female rats weighing between 60 and 100 g are anesthetized with ether, the right kidney approached through a flank retroperitoneal incision, decapsulated and tied with a figure-of-eight ligature. The animals are left to recover and two weeks later are again anesthetized and the contralateral kidney removed. Four weeks after the second operation the rats are subjected to indirect blood pressure measurements and those showing systolic pressure values greater than 160 mmHg are selected for drug testing.
Blood pressure is measured in the tail with an inflatable occluding cuff placed at the base of the extremity and a pulse detector located distally. The cuff is inflated to approximately 300 mmHg and is slowly deflated until pulsations appear, indicating the level of systolic pressure; diastolic pressure is not recorded by this procedure. All measurements are carried out in unanesthetized, unsedated animals maintained in a warm environment during the recording procedure and for at least 6 hr before. In all cases, three pressure readings are obtained in succession and mean values are calculated thereof.
Experiments are carried out in groups of five hypertensive rats in which systolic pressure is determined immediately before and 2, 4, 6 and 8 hr after the intraperitoneal administration of the test compound at a dose of 1 mg/kg. Drugs are diluted from stock solutions with phosphate buffer (Lee et al., Prostaglandins 3:29 [1973]), so as to inject this quantity in a volume of 1 ml/kg. Changes from control blood pressure values are calculated for each interval both in mmHg and in per-cent, and evaluated for significance by means of Wilcoxon's signed rank test (Wilcoxon and Wilcox, Some rapid approximate statistical procedures, Lederle Laboratories, Pearl River [1964]).

blood pressure = test: Effects on Blood Pressure and Heart Rate in the Anesthetized Cat (Test D); assay type: in vivo; settings: Felis catus, iv, i.v. 0.01 to 10.0 mcg/kg, scored on hypotension, read-out: Activity value, Test D: Normal Feline Blood Pressure and Heart Rate (ED50 mmHg)
Protocol: D. Evaluation of the Effects of Prostaglandin Analogs III on Blood Pressure and Heart Rate in the Anesthetized Cat
The acute effects of test compounds on blood pressure and heart rate were determined in cats of either sex anesthetized with a mixture of pentobarbital sodium (35 mg/kg, i.v.) and barbital sodium (100 mg/kg, i.v.). Cannulas were placed in the trachea to allow adequate spontaneous ventilation, in a femoral artery for blood pressure recording with a strain gage transducer, and in a saphenous vein for drug administration. Heart rate was recorded by means of a cardiotachometer driven by the R wave of the electrocardiogram. After a period of 10 min of stable recordings of blood pressure and heart rate, the test compound was administered intravenously at doses increasing from 0.01 to 10.0 mcg/kg, spaced one log and injected at 10 min intervals. All doses were injected in a volume of 0.1 ml/kg. Modifications of blood pressure and heart rate induced by the test compound were expressed both in absolute units (mmHg and beats/min) and as percent of values recorded immediately before administration of each dose. Biphasic responses were tabulated in the order in which they occur. The direction of the observed changes was also noted (+ for increase and - for decrease).
Activity of compounds in this test was judged only on the basis of the degree of hypotension observed. Thus, the ED50 mmHg (dose decreasing blood pressure by 50 mmHg) was calculated graphically and the compound scored according to the following scale: […]

rat uterus = test: Effects on the Rat Uterus (Test F); settings: rat uterus segments, 0.001 to 10.0 mcg/ml, 29° C.; read-out: Activity value, Test F: Effects on Rat Uterus (ED50, response of 50% that of carbachol)
Protocol: F. Evaluation of the Effects of Prostaglandin Analogs III on the Rat Uterus
The uterine stimulant effect of test compounds is determined in segments of uterus obtained from rats (140-160 g) pretreated subcutaneously with 1 mg/kg of diethylstibesterol 18 hr before the experiment. The tissues are placed in 10 ml chambers filled with de-Jalon solution at 29° C. and bubbled with 95% O2 and 5% CO2, and prepared for isometric recording with force displacement transducers. Preparations are stretched to an initial tension of 1 g and are left undisturbed for 30 min, after which two responses to 1 mcg/ml of carbachol added to the bath at a 10 min interval, are obtained (the value of the second response is recorded). Responses to increasing concentrations of the test compound (0.001 to 10.0 mcg/ml with one log intervals) are then recorded every 10 min. Preparations are washed four times after each response. All doses of drugs are administered in a 0.1 ml volume. Since it has been observed that the magnitude of the second response to carbachol, which is approximately 10% greater than the first, is close to the maximal response of the tissue, such value is taken as a measure of the sensititity of the particular segment. Responses to each concentration of the test compound are expressed in terms of percentage of the second response to carbachol and the ED50 (dose producing a response of 50% that of carbachol) is calculated graphically. Activity is scored according to the following scale: […]

| Structure (SMILES) | Activity value, Test C: Increase in Canidae Femoral Blood Flow (ED100 ml/min) (femoral blood flow) | Activity value, Test E: Effects on Blood Pressure in Hypertensive Rat (blood pressure decrease) [1] | ED (50 mmHg) (blood pressure) | EC50 (rat uterus) |
| --- | --- | --- | --- | --- |
| CCCCC1([C@@H](O)/C=C/[C@H]2[C@H](O)CC(=O)[C@@H]2CCCCCCCO)CCC1 [TR-4646, 16,16-Propano-1,11α,15S-trihydroxyprost-13E-en-9-one] | 0 (>10.0) | 0 | > 0.0101 mg/kg | > 10 µg/mL |
| CCC1CC([C@@H](O)/C=C/[C@H]2C=CC(=O)[C@@H]2CCCCCCCOC(C)=O)C1 (stereo partly drawn) [TR-4568, 1-Acetoxy-15R-hydroxy-16,18-methanoprosta-10,13E-dien-9-one] | 0 (>10.0) | 0 | > 0.0101 mg/kg | > 10 µg/mL |
| CCC1CC([C@H](O)/C=C/[C@H]2[C@H](O)CC(=O)[C@@H]2CCCCCCCO)C1 (stereo partly drawn) [TR-4570, 16,18-Methano-1,11α,15S-trihydroxyprost-13E-en-9-one] | 0 (>10.0) | 0 | > 0.0101 mg/kg | 0.101 to 1 µg/mL (≈ 0.287 to 2.84 µM) |
| COC(=O)CCCCCC[C@H]1C(=O)C[C@@H](O)[C@@H]1/C=C/[C@@H](O)C1(C)CCC1 [TR-4690, Methyl 16,19-cyclo-11α,15R-dihydroxy-16-methyl-20-nor-9-oxoprost-13E-en-1-oate] | 2 (0.11-1.0) | 0 | 0.00101 to 0.01 mg/kg | > 10 µg/mL |
| CCC1CC([C@H](O)/C=C/[C@H]2[C@H](O)CC(=O)[C@@H]2CCCCCCC(=O)OC)C1 (stereo partly drawn) [TR-4249, Methyl 11α,15S-dihydroxy-16,18-methano-9-oxoprost-13E-en-1-oate] | 0 (>10.0) | 0 | > 0.0101 mg/kg | > 10 µg/mL |
| CC1([C@H](O)/C=C/[C@H]2[C@H](O)CC(=O)[C@@H]2CCCCCCCO)CCC1 [TR-4673, 16,19-Cyclo-16-methyl-20-nor-1,11α,15R-trihydroxyprost-13E-en-9-one] | 0 (>10.0) | 1 | > 0.0101 mg/kg | > 10 µg/mL |
| CCC1CC([C@@H](O)/C=C/[C@H]2[C@H](O)CC(=O)[C@@H]2CCCCCCCO)C1 (stereo partly drawn) [TR-4569, 16,18-Methano-1,11α,15R-trihydroxyprost-13E-en-9-one] | 0 (>10.0) | 0 | > 0.0101 mg/kg | > 10 µg/mL |
| CCCCC1([C@@H](O)/C=C/[C@H]2[C@H](O)CC(=O)[C@@H]2CCCCCCC(=O)OC)CCC1 [TR-4677, Methyl 11α,15S-dihydroxy-9-oxo-16-,16-propanoprost-13E-en-1-oate] | 0 (>10.0) | 0 | > 0.0101 mg/kg | 0.01 to 0.1 µg/mL (≈ 0.0245 to 0.245 µM) |
| CCC1CC([C@@H](O)/C=C/[C@H]2[C@H](O)CC(=O)[C@@H]2CCCCCCC(=O)OC)C1 (stereo partly drawn) [TR-4248, Methyl 11α,15R-dihydroxy-16,18-methano-9-oxoprost-13E-en-1-oate] | 2 (0.11-1.0) | 1 | 0.00011 to 0.001 mg/kg | 0.101 to 1 µg/mL (≈ 0.265 to 2.63 µM) |
| CCC1CC(C)([C@@H](O)/C=C/[C@H]2[C@H](O)CC(=O)[C@@H]2CCCCCCC(=O)OC)C1 (stereo partly drawn) [TR-4682, Methyl 11α,15S-dihydroxy-16,18-methano-16-methyl-9-oxoprost-13E-en-1-oate] | 3 (0.01-0.1) | 0 | 0.00101 to 0.01 mg/kg | > 10 µg/mL |
| CCC1CC([C@H](O)/C=C/[C@H]2[C@H](O)CC(=O)[C@@H]2CCCCCCO)C1 (relative stereo) [TR-4676, (±)16,18-Methano-1-nor-2,11α,15S-trihydroxyprost-13E-en-9-one] | 0 (>10.0) | 0 | > 0.0101 mg/kg | > 10 µg/mL |
| COC(=O)CCCCCC[C@H]1C(=O)C[C@@H](O)[C@@H]1/C=C/[C@H](O)C1(C)CCC1 [TR-4691, Methyl 16,19-cyclo-11α,15S-dihydroxy-16-methyl-20-nor-9-oxoprost-13E-en-1-oate] | 2 (0.11-1.0) | 0 | > 0.0101 mg/kg | > 10 µg/mL |
| CCCCC1([C@H](O)/C=C/[C@H]2[C@H](O)CC(=O)[C@@H]2CCCCCCCO)CCC1 [TR-4645, 16,16-Propano-1,11α,15R-trihydroxyprost-13E-en-9-one] | 1 (1.0.-10.0) | 0 | > 0.0101 mg/kg | > 10 µg/mL |
